By IC50 is commonly meant the concentration that inhibits the measured activity by half.

The source of these data is US20240383852A1, “ANTI-VIRAL COMPOUNDS” (INFEX Therapeutics Limited, priority 2021, published 2024).

The subject of data set [1] is human Hep G2 cells (ATCC HB-8065). In words: Cytotoxicity in Hep G2 cells (CellTiter-Glo). In kind it is cell-based. (In general: In ATP-based viability assays light output follows the ATP content of the culture.)
In a further data set the target is T1, SARS-CoV-2 PLpro (Severe acute respiratory syndrome coronavirus 2, UniProt P0DTD1).
T1 construct: containing 60 nM papain-like protease
Put plainly: biochemical.

The mark [2] stands for this setting: Hep G2 cells, 100 μM test article, 24-hour exposure.
The mark [3] stands for this setting: 60 nM papain-like protease, 50 μM Z-RLRGG-AMC, pH 7.5, 37° C., read-out: SARS-CoV-2 PLpro IC50.

Structures are written as SMILES. Counter-ions that a name gives are not always drawn. Like-named read-outs stand apart in the source and are kept apart here.

`COc1ccc([C@@H](C)NC(=O)c2cc(N3CCN(C)CC3)ccc2C)cc1-c1cnn(C)c1C` [Example 246, N-[(1R)-1-[3-(1,5-Dimethylpyrazol-4-yl)-4-methoxy-phenyl]ethyl]-2-methyl-5-(4-methylpiperazin-1-yl)benzamide]: the “% Cell Viability” value in data set [1] (setting [2]) is given as 81.4%. In addition, the IC50 on SARS-CoV-2 PLpro (setting [3]) was below 2000 nM.
In the same order, the values of `Cc1ccc(N2C[C@H]3C[C@@H]2CN3C)cc1C(=O)N[C@H](C)c1cccc(Br)c1` [Example 123, N-[(1R)-1-(3-bromophenyl)ethyl]-2-methyl-5-[(1R,4R)-5-methyl-2,5-diazabicyclo[2.2.1]heptan-2-yl]benzamide] are 32.9% and below 2000 nM.
As for `COc1ccc([C@@H](C)NC(=O)c2cc(C3CCN(C)CC3)ccc2C)cc1Br` [Example 299, N-[(1R)-1-(3-Bromo-4-methoxy-phenyl)ethyl]-2-methyl-5-(1-methyl-4-piperidyl)benzamide], in data set [1] (setting [2]), the “% Cell Viability” value turned out to be 76.2%. At SARS-CoV-2 PLpro (setting [3]), the half-inhibitory concentration (IC50) was below 2000 nM.
In the same order, the values of `Cc1ccc(N2CCN(C)CC2)cc1C(=O)N[C@H](C)c1cccc(-c2cccc(CN(C)C)c2)c1` [Example 68, N-[(1R)-1-[3-[3-[(Dimethylamino)methyl]phenyl]phenyl]ethyl]-2-methyl-5-(4-methylpiperazin-1-yl)benzamide Dihydrochloride Salt] are 48.9% and below 2000 nM.
With `COc1ccc([C@@H](C)NC(=O)c2cc(N3CC4CNCC4C3)ccc2C)cc1OC` (stereo partly drawn) [Example 36, 5-(2,3,3a,4,6,6a-Hexahydro-1H-pyrrolo[3,4-c]pyrrol-5-yl)-N-[(1R)-1-(3,4-dimethoxyphenyl)ethyl]-2-methyl-benzamide], the “% Cell Viability” value in data set [1] (setting [2]) turned out to be 98.0%. Moreover, on SARS-CoV-2 PLpro (setting [3]), the IC50 was below 2000 nM.
In the same order, the values of `COc1cc(OC)cc([C@@H](C)NC(=O)c2cc(N3CCN(C)CC3)ccc2C)c1` [Example 31, N-[(1R)-1-(3,5-Dimethoxyphenyl)ethyl]-2-methyl-5-(4-methylpiperazin-1-yl)benzamide] are 90.6% and below 5000 nM.
As to `COc1cc(Br)cc([C@@H](C)NC(=O)c2cc(N3CCN4CCCC4C3)ccc2C)c1` (stereo partly drawn) [Example 200, 5-(3,4,6,7,8,8a-Hexahydro-1H-pyrrolo[1,2a]pyrazin-2-yl)-N-[(1R)-1-(3-bromo-5-methoxy-phenyl)ethyl]-2-methyl-benzamide], in data set [1] (setting [2]), the “% Cell Viability” value came out at 24.3%. Besides, the IC50 at SARS-CoV-2 PLpro (setting [3]) is below 2000 nM.
In the same order, the values of `Cc1ccc(N2CCS(=O)(=O)CC2)cc1C(=O)N[C@H](C)c1cccc2ccccc12` [Example 26, 5-(1,1-Dioxo-1,4-thiazinan-4-yl)-2-methyl-N-[(1R)-1-(1-naphthyl)ethyl]benzamide] are 82.8% and below 100000 nM.
With `COc1ccc([C@@H](C)NC(=O)c2cc(N3CCN(C)CC3)ccc2C)cc1OCCN1CCOCC1` [Example 292, N-[(1R)-1-[4-Methoxy-3-(2-morpholinoethoxy)phenyl]ethyl]-2-methyl-5-(4-methylpiperazin-1-yl)benzamide], the “% Cell Viability” value in data set [1] (setting [2]) was 88.9%. Further, on SARS-CoV-2 PLpro (setting [3]), the IC50 is below 2000 nM.
In the same order, the values of `Cc1ccc(N2CCN(C)CC2)cc1C(=O)N[C@H](C)c1ccc(C)c(-c2cnn(C)c2)c1` [Example 228, 2-Methyl-N-[(1R)-1-[4-methyl-3-(1-methylpyrazol-4-yl)phenyl]ethyl]-5-(4-methylpiperazin-1-yl)benzamide] are 69.9% and below 2000 nM.
`Cc1ccc(N2CCN(C)CC2)cc1C(=O)N[C@H](C)c1cccc(C(=O)NC[C@@H](O)CO)c1` [Example 308, N-[(1R)-1-[3-[[(2R)-2,3-Dihydroxypropyl]carbamoyl]phenyl]ethyl]-2-methyl-5-(4-methylpiperazin-1-yl)benzamide hydrochloride salt]: the “% Cell Viability” value in data set [1] (setting [2]) stood at 126.8%. In addition, on SARS-CoV-2 PLpro (setting [3]), the IC50 was below 10000 nM.
Taken in the same sequence, the figures for `COc1ccc([C@@H](C)NC(=O)c2cc(N3CCN(CCO)CC3)ccc2C)cc1-c1cnn(C)c1` [Example 273, 5-[4-(2-Hydroxyethyl)piperazin-1-yl]-N-[(1R)-1-[4-methoxy-3-(1-methylpyrazol-4-yl)phenyl]ethyl]-2-methyl-benzamide] were 92.6% and below 5000 nM.
In the same order, the values of `CNC(=O)CCc1cccc([C@@H](C)NC(=O)c2cc(N3CCN(C)CC3)ccc2C)c1` [Example 85, 2-Methyl-N-[(1R)-1-[3-[3-(methylamino)-3-oxo-propyl]phenyl]ethyl]-5-(4-methylpiperazin-1-yl)benzamide] are 85.1% and below 10000 nM.
Taken in the same sequence, the figures for `Cc1ccc(N2CCN(C)CC2)cc1C(=O)N[C@H](C)c1cccc(-c2cccc(C(=O)NC[C@@H](O)CO)c2)c1` [Example 90] were 103.1% and below 2000 nM.
For `COc1cc(-c2cnn(C)c2)cc([C@@H](C)NC(=O)c2cc(N3CCNC4(CC4)C3)ccc2C)c1` [Example 264, 5-(4,7-Diazaspiro[2.5]octan-7-yl)-N-[(1R)-1-[3-methoxy-5-(1-methylpyrazol-4-yl)phenyl]ethyl]-2-methyl-benzamide], the “% Cell Viability” value in data set [1] (setting [2]) turned out to be 68.5%. Further, on SARS-CoV-2 PLpro (setting [3]), the IC50 is below 2000 nM.
In the same order, the values of `CC(=O)N1CCN(c2cccc(C(=O)N[C@H](C)c3cccc4ccccc34)c2)CC1` [Example 159, 3-(4-Acetylpiperazin-1-yl)-N-[(1R)-1-(1-naphthyl)ethyl]benzamide] are 81.5% and above 100000 nM.
In the same order, the values of `Cc1ccc(N2CCOCC2)cc1C(=O)N[C@H](C)c1cccc2ccccc12` [Example 116, 2-Methyl-5-morpholino-N-[(1R)-1-(1-naphthyl)ethyl]benzamide] are 66.6% and below 10000 nM.
For `COc1cc(-c2cnn(C)c2)cc([C@@H](C)NC(=O)c2cc(N3CCN4CCCC4C3)ccc2C)c1` (stereo partly drawn) [Example 243, 5-(3,4,6,7,8,8a-Hexahydro-1H-pyrrolo[1,2-a]pyrazin-2-yl)-N-[(1R)-1-[3-methoxy-5-(1-methylpyrazol-4-yl)phenyl]ethyl]-2-methyl-benzamide], in data set [1] (setting [2]), the “% Cell Viability” value is reported as 70.9%. Moreover, the IC50 at SARS-CoV-2 PLpro (setting [3]) was below 2000 nM.
Regarding `Cc1ccc(N2CCN(C)CC2)cc1C(=O)N[C@H](C)c1cccc(-c2ccccc2)c1` [Example 27, 2-Methyl-5-(4-methylpiperazin-1-yl)-N-[(1R)-1-(3-phenylphenyl)ethyl]benzamide], in data set [1] (setting [2]), the “% Cell Viability” value is reported as 1.0%. Further, the IC50 on SARS-CoV-2 PLpro (setting [3]) is below 2000 nM.
`Cc1ccc(N2CC3(CN(CCC(=O)O)C3)C2)cc1C(=O)N[C@H](C)c1cccc2ccccc12` [Example 168, 3-[2-[4-Methyl-3-[[(1R)-1-(1-naphthyl)ethyl]carbamoyl]phenyl]-2,6-diazaspiro[3.3]heptan-6-yl]propanoic acid]: in data set [1] (setting [2]), the “% Cell Viability” value came to 111.2%. Further, the IC50 on SARS-CoV-2 PLpro (setting [3]) was below 5000 nM.
In the case of `COc1cc(-c2cnn(C)c2)cc([C@@H](C)NC(=O)c2cc(N3C[C@H]4CC[C@@H](C3)N4CC3CC3)ccc2C)c1` [Example 274, 5-[(1R,5S)-8-(Cyclopropylmethyl)-3,8-diazabicyclo[3.2.1]octan-3-yl]-N-[(1R)-1-[3-methoxy-5-(1-methylpyrazol-4-yl)phenyl]ethyl]-2-methyl-benzamide], the “% Cell Viability” value in data set [1] (human, 24 h, 100 μM) is given as 38.7%. On SARS-CoV-2 PLpro, this molecule came in with a half-inhibitory concentration (IC50) below 2000 nM.
Turning to `Cc1ccc(N2CCN(C)CC2)cc1C(=O)N[C@H](C)c1cccc(-c2ccc(=O)[nH]c2)c1` [Example 66, 2-Methyl-5-(4-methylpiperazin-1-yl)-N-[(1R)-1-[3-(6-oxo-1,6-dihydropyridin-3-yl)phenyl]ethyl]benzamide], the “% Cell Viability” value in data set [1] (setting [2]) is given as 100.8%. Further, on SARS-CoV-2 PLpro (setting [3]), the IC50 is below 2000 nM.
Taken in the same sequence, the figures for `Cc1ccc(N2C[C@H]3C[C@@H]2CN3C)cc1C(=O)N[C@H](C)c1cccc2ccccc12` [Example 121, 2-Methyl-5-[(1R,4R)-5-methyl-2,5-diazabicyclo[2.2.1]heptan-2-yl]-N-[(1R)-1-(naphthalen-1-yl)ethyl]benzamide] were 75.1% and below 2000 nM.
As for `COc1ccc([C@@H](C)NC(=O)c2cc(N3CCN(C)CC3)ccc2C)cc1Cl` [Example 188, N-[(1R)-1-(3-Chloro-4-methoxy-phenyl)ethyl]-2-methyl-5-(4-methylpiperazin-1-yl)benzamide], the “% Cell Viability” value in data set [1] (setting [2]) was 84.9%. Besides, the 50% inhibitory concentration (IC50) at SARS-CoV-2 PLpro (setting [3]) was below 2000 nM.
Taken in the same sequence, the figures for `Cc1ccc(N2CCN(C)CC2)cc1C(=O)N[C@H](C)c1cccc(-c2cccc(C(=O)NCCN(C)C)c2)c1` [Example 94, N-[(1R)-1-[3-[3-[2-(Dimethylamino)ethylcarbamoyl]phenyl]phenyl]ethyl]-2-methyl-5-(4-methylpiperazin-1-yl)benzamide] were 17.3% and below 2000 nM.
In the same order, the values of `COc1cc(-c2cnn(C)c2)cc([C@@H](C)NC(=O)c2cc(N3CC4CNCC4C3)ccc2C)c1` (stereo partly drawn) [Example 262, 5-(2,3,3a,4,6,6a-Hexahydro-1H-pyrrolo[3,4-c]pyrrol-5-yl)-N-[(1R)-1-[3-methoxy-5-(1-methylpyrazol-4-yl)phenyl]ethyl]-2-methyl-benzamide] are 42.4% and below 2000 nM.
In the same order, the values of `Cc1ccc(N2CCN(C)CC2)cc1C(=O)N[C@H](C)c1cccc(-c2ccc(Cl)cc2)c1` [Example 55, N-[(1R)-1-[3-(4-Chlorophenyl)phenyl]ethyl]-2-methyl-5-(4-methylpiperazin-1-yl)benzamide] are 1.0% and below 2000 nM.
`COc1ccc([C@@H](C)NC(=O)c2cc(N3CCN(C)CC3)ccc2C)cc1-c1cn[nH]c1` [Example 214, N-[(1R)-1-[4-Methoxy-3-(1H-pyrazol-4-yl)phenyl]ethyl]-2-methyl-5-(4-methylpiperazin-1-yl)benzamide]: in data set [1] (setting [2]), the “% Cell Viability” value stood at 101.2%. Also, the IC50 on SARS-CoV-2 PLpro (setting [3]) is below 2000 nM.
